The results in this text go back to patent publication US7129243B2, “Peptide compounds” (Astellas Pharma Inc., priority 2001, dated 2006).

Structures are written as SMILES.

This test relates to production of nitric oxide in murine macrophage cell line RAW264.7. The test can be described thus: Assay for inhibitory activity on the production of nitric oxide. It is filed as cell-based. The conditions noted are these: Mus musculus; test compound 10^−6 M; RAW264.7 cells activated with LPS (1 μg/ml) and INF γ (3 u/ml) for 18–24 hours; NO2^− by Griess reagent. Here is the method:
The murine macrophage cell line RAW264.7 (American Type Culture Collection, No. TIB71) was used in this study. RAW264.7 cells were grown on […] plastic culture flasks at 37° C., 5% in Dulbecco's modified Eagle's medium (DMEM) supplemented with L-glutamine, penicillin, streptomycin and 10% heat-inactivated fetal bovine serum. They were removed from culture flasks by rubber cell scraper and were centrifuged and resuspended in DEM without phenol red. They were plated in 96-well microtiter plates (10^5 cells per well) and allowed to adhere over 2 hours. The test samples were added and the cells were preincubated for 1 hour. Thereafter the cells were activated with both of lipopolysaccharide (LPS) (1 μg/ml) and interferon γ (INF γ) (3 u/ml) for 18-24 hours. An equal volume of Griess reagent (1% sulfanilamide/0.1% N-naphthylethylenediamine dihydrochloride/2.5% H3PO4) was added and the cells were incubated at room temperature for 10 minutes. The absorbance was read at 570 nm using microplate reader and NO2^- was measured using NaNO2 as a standard.
Compound `O=C(N[C@@H](Cc1ccccn1)C(=O)NCC(=O)N1CCC(OCC(F)(F)F)CC1)c1cc2cc(Cl)ccc2o1` [Compound (f), 5-Chloro-N-[(1S)-2-oxo-2-({2-oxo-2-[4-(2,2,2-trifluoroethoxy)-1-piperidinyl]ethyl}amino)-1-(2-pyridylmethyl)-ethyl]-1-benzofuran-2-carboxamide] returned an inhibition at 1 µM of 100%. `O=C(/C=C/c1ccc(Cl)cc1)N[C@@H](Cc1ccccn1)C(=O)NCC(=O)N1CCC(Oc2cnccn2)CC1` [Compound (b), (2E)-3-(4-Chlorophenyl)-N-[(1S)-2-oxo-2-({2-oxo-2-[4-(2-pyrazinyloxy)-1-piperidinyl]ethyl}amino)-1-(2-pyridylmethyl)ethyl]acrylamide] gave an inhibition at 1 µM of 97.6%. The same measure for `CC(C)OC1CCN(C(=O)CNC(=O)[C@H](Cc2ccccn2)NC(=O)/C=C/c2ccc(Cl)cc2)CC1` [Compound (g), (2E)-3-(4-Chlorophenyl)-N-[(1S)-2-{[2-(4-isopropoxy-1-piperidinyl)-2-oxoethyl]amino}-2-oxo-1-(2-pyridylmethyl)ethyl]acrylamide]: 100%; for `O=C(N[C@@H](Cc1ccccn1)C(=O)NCC(=O)N1CCC(Oc2ccccn2)CC1)c1cc2cc(Cl)ccc2o1` [Compound (d), 5-Chloro-N-[(1S)-2-oxo-2-({2-oxo-2-[4-(2-pyridyloxy)-1-piperidinyl]ethyl}amino)-1-(2-pyridylmethyl)ethyl]-1-benzofuran-2-carboxamide]: 100%. For the compound `COc1cccc(OC2CCN(C(=O)CNC(=O)[C@H](Cc3ccccn3)NC(=O)c3cc4cc(Cl)ccc4o3)CC2)n1` [Compound (c), 5-Chloro-N-[(1S)-2-[(2-{4-[(6-methoxy-2-pyridyl)oxy]-1-piperidinyl}-2-oxoethyl)amino]-2-oxo-1-(2-pyridylmethyl)ethyl]-1-benzofuran-2-carboxamide], the inhibition at 1 µM was 100%. The figure for `O=C(N[C@@H](Cc1ccccn1)C(=O)NCC(=O)N1CCC(Oc2nccs2)CC1)c1cc2cc(Cl)ccc2o1` [Compound (a), 5-Chloro-N-[(1S)-2-oxo-2-({2-oxo-2-[4-(1,3-thiazol-2-yloxy)-1-piperidinyl]ethyl}amino)-1-(2-pyridylmethyl)ethyl]-1-benzofuran-2-carboxamide] is 100%. For the compound `O=C(/C=C/c1ccc(Cl)cc1)N[C@@H](Cc1ccccn1)C(=O)NCC(=O)N1CCC(Oc2ccccc2)CC1` [Compound (e), (2E)-3-(4-Chlorophenyl)-N-[(1S)-2-oxo-2-{[2-oxo-2-(4-phenoxy-1-piperidinyl)ethyl]amino}-1-(2-pyridylmethyl)ethyl]-acrylamide], the inhibition at 1 µM came to 100%.
